Experimental data as given in patent publication US9828362B2, “1,4-disubstituted imidazole derivative” (Sumitomo Dainippon Pharma Co., Ltd., priority 2015, dated 2017).

Tests used:
HCT-116 tumor = experiment: Anti-tumor effect to HCT-116 tumor-bearing mouse; format: in vivo; conditions: nude mouse, oral, dosage 30 mg/kg, administration period 17 days, tumor volume
From the text: The present compound can be used to evaluate the anti-tumor effect thereof. A 4 to 7-week-old nude mouse (BALB/cAnNCrj-nu/nu, female, CHARLES RIVER LABORATORIES JAPAN, INC.) received intradermal transplantation of HCT-116 cells (ATCC) in an amount of 3×10^6 cells/mouse around the ventral portion. The engraftment of HCT-116 cells was observed 5 to 14 days after the transplantation, and then each compound suspended in a solvent such as 0.5% methylcellulose solution was orally administrated to the mouse in a dose of 1 to 100 mg/kg one to twice daily. The tumor volume was measured over time after the administration. to evaluate the effect for reducing the tumor volume by the administration of each compound. The tumor volume can be calculated from the minor axis and the major axis of the tumor measured with a digital caliper (Mitutoyo) according to the following formula: Tumor volume [mm^3]=0.5×minor axis [mm]×(major axis [ram])^2
The tumor volume is control administration group treated. with only a solvent such as 0.5% methylcellulose solution was compared with that of the present compound administration group, and T/C value was calculated according the following formula to evaluate the anti-tumor effect of the present compound. […]

HCT-116 cells = experiment: Test for inhibiting sphere-forming ability of cancer cells (in the presence of BSA); format: cell-based; conditions: Homo sapiens, 96 h, Ultra-Low Attachment plate, medium with 5% bovine serum albumin (BSA), cultured 4 days, CellTiter-Glo, read-out: Sphere IC50 value (concentration for 50% inhibition of cell proliferation)
Description: HCT-116 cells were available from the American Type Culture Collection (ATCC). HCT-116 cells were cultured at 37° C. and 5% CO2 using the McCoy's 5a medium containing 10% fetal bovine serum (FBS) and 1% penicillin/streptomycin. […] The test compounds were added into each well to adjust the final concentration of DMSO to 0.1%, and the cells were cultured for 4 days.

Compound	T/C (%) (HCT-116 tumor)	IC50 (HCT-116 cells)
Nc1cc(C(=O)Nc2cn(Cc3cc(F)c(F)c(F)c3)cn2)cnc1CO [Example 46]	91%	–
CC(C)(O)c1ccc(/C=C/C(=O)Nc2cn(Cc3cccc(C(F)(F)F)c3)cn2)cn1 [Example 53, (2E)-3-[6-(2-Hydroxypropan-2-yl)pyridin-3-yl]-N-{1-[3-(trifluoromethyl)benzyl]-1H-imidazol-4-yl}prop-2-enamide]	–	> 10 µM
